From ChEMBL document CHEMBL3046904, “Synthesis, characterization, bioactivity, and POM analyses of isothiochromeno[3,4-e][1,2]oxazines” (2013)

Experiments:
Type in all cases: functional
M14 = assay: Cytotoxicity against Homo sapiens (human) M14 after 48 hr by Alamar Blue assay; conditions: M14, 48 h
PC-3 = assay: Cytotoxicity against Homo sapiens (human) PC3 after 48 hr by Alamar Blue assay; conditions: PC-3, 48 h
HCT-15 = assay: Cytotoxicity against Homo sapiens (human) HCT15 after 48 hr by Alamar Blue assay; conditions: HCT-15, 48 h
SK-MEL-5 = assay: Cytotoxicity against Homo sapiens (human) SK-MEL-5 after 48 hr by Alamar Blue assay; conditions: SK-MEL-5, 48 h
SW-620 = assay: Cytotoxicity against Homo sapiens (human) SW620 after 48 hr by Alamar Blue assay; conditions: SW-620, 48 h
HT-29 = assay: Cytotoxicity against Homo sapiens (human) HT-29 after 48 hr by Alamar Blue assay; conditions: HT-29, 48 h
HCC 2998 = assay: Cytotoxicity against Homo sapiens (human) HCC2998 after 48 hr by Alamar Blue assay; conditions: HCC 2998, 48 h
BT-549 = assay: Cytotoxicity against Homo sapiens (human) BT549 after 48 hr by Alamar Blue assay; conditions: BT-549, 48 h
OVCAR-5 = assay: Cytotoxicity against Homo sapiens (human) OVCAR5 after 48 hr by Alamar Blue assay; conditions: OVCAR-5, 48 h
SF-268 [1] = assay: Cytotoxicity against Homo sapiens (human) SF268 after 48 hr by Alamar Blue assay; conditions: SF-268, 48 h
K562 = assay: Cytotoxicity against Homo sapiens (human) K562 after 48 hr by Alamar Blue assay; conditions: K562, 48 h
HOP-92 = assay: Cytotoxicity against Homo sapiens (human) HOP92 after 48 hr by Alamar Blue assay; conditions: HOP-92, 48 h
RXF 393 = assay: Cytotoxicity against Homo sapiens (human) RXF393 after 48 hr by Alamar Blue assay; conditions: RXF 393, 48 h
UACC-62 = assay: Cytotoxicity against Homo sapiens (human) UACC62 after 48 hr by Alamar Blue assay; conditions: UACC-62, 48 h
SF-539 = assay: Cytotoxicity against Homo sapiens (human) SF539 after 48 hr by Alamar Blue assay; conditions: SF-539, 48 h
SN12C = assay: Cytotoxicity against Homo sapiens (human) SN12C after 48 hr by Alamar Blue assay
MCF7 [2] = assay: Cytotoxicity against Homo sapiens (human) MCF7 assessed as cell growth at 10^-4 M after 48 hr by Alamar Blue assay; conditions: MCF7, 48 h, read-out: Activity
U-251 = assay: Cytotoxicity against Homo sapiens (human) U251 after 48 hr by Alamar Blue assay; conditions: U-251, 48 h
DU-145 = assay: Cytotoxicity against Homo sapiens (human) DU145 after 48 hr by Alamar Blue assay; conditions: DU-145, 48 h
SK-MEL-2 = assay: Cytotoxicity against Homo sapiens (human) SK-MEL-2 after 48 hr by Alamar Blue assay; conditions: SK-MEL-2, 48 h
LOX IMVI = assay: Cytotoxicity against Homo sapiens (human) LOXIMVI after 48 hr by Alamar Blue assay
OVCAR-3 = assay: Cytotoxicity against Homo sapiens (human) OVCAR3 after 48 hr by Alamar Blue assay; conditions: OVCAR-3, 48 h
NCI-H226 = assay: Cytotoxicity against Homo sapiens (human) NCI-H226 after 48 hr by Alamar Blue assay; conditions: NCI-H226, 48 h
Hs-578T = assay: Cytotoxicity against Homo sapiens (human) Hs 578T after 48 hr by Alamar Blue assay
SF-295 = assay: Cytotoxicity against Homo sapiens (human) SF295 after 48 hr by Alamar Blue assay; conditions: SF-295, 48 h
SK-MEL-28 = assay: Cytotoxicity against Homo sapiens (human) SK-MEL-28 after 48 hr by Alamar Blue assay; conditions: SK-MEL-28, 48 h
MCF7 [3] = assay: Cytotoxicity against Homo sapiens (human) MCF7 after 48 hr by Alamar Blue assay; conditions: MCF7, 48 h
OVCAR-4 = assay: Cytotoxicity against Homo sapiens (human) OVCAR4 after 48 hr by Alamar Blue assay; conditions: OVCAR-4, 48 h
COLO 205 = assay: Cytotoxicity against Homo sapiens (human) COLO205 after 48 hr by Alamar Blue assay; conditions: COLO 205, 48 h
EKVX = assay: Cytotoxicity against Homo sapiens (human) EKVX after 48 hr by Alamar Blue assay
TK-10 = assay: Cytotoxicity against Homo sapiens (human) TK10 after 48 hr by Alamar Blue assay; conditions: TK-10, 48 h
ACHN = assay: Cytotoxicity against Homo sapiens (human) ACHN after 48 hr by Alamar Blue assay
T47D = assay: Cytotoxicity against Homo sapiens (human) T47D after 48 hr by Alamar Blue assay
MDA-MB-231 = assay: Cytotoxicity against Homo sapiens (human) MDA-MB-231 after 48 hr by Alamar Blue assay; conditions: MDA-MB-231, 48 h
SR = assay: Cytotoxicity against Homo sapiens (human) SR after 48 hr by Alamar Blue assay
SF-268 [4] = assay: Cytotoxicity against Homo sapiens (human) SF268 assessed as cell growth at 10^-4 M after 48 hr by Alamar Blue assay; conditions: SF-268, 48 h, read-out: Activity
OVCAR-8 = assay: Cytotoxicity against Homo sapiens (human) OVCAR8 after 48 hr by Alamar Blue assay; conditions: OVCAR-8, 48 h
786-0 = assay: Cytotoxicity against Homo sapiens (human) 786-0 after 48 hr by Alamar Blue assay; conditions: 786-0, 48 h
HCT-116 = assay: Cytotoxicity against Homo sapiens (human) HCT116 after 48 hr by Alamar Blue assay; conditions: HCT-116, 48 h
MDA-MB-435 = assay: Cytotoxicity against Homo sapiens (human) MDA-MB-435 after 48 hr by Alamar Blue assay; conditions: MDA-MB-435, 48 h
NCI/ADR-RES = assay: Cytotoxicity against Homo sapiens (human) NCI/ADR-RES after 48 hr by Alamar Blue assay
CAKI-1 = assay: Cytotoxicity against Homo sapiens (human) Caki1 after 48 hr by Alamar Blue assay; conditions: CAKI-1, 48 h
NCI-H460 [5] = assay: Cytotoxicity against Homo sapiens (human) NCI-H460 after 48 hr by Alamar Blue assay; conditions: NCI-H460, 48 h
IGROV-1 = assay: Cytotoxicity against Homo sapiens (human) IGROV1 after 48 hr by Alamar Blue assay; conditions: IGROV-1, 48 h
HOP-62 = assay: Cytotoxicity against Homo sapiens (human) HOP62 after 48 hr by Alamar Blue assay; conditions: HOP-62, 48 h
KM12 = assay: Cytotoxicity against Homo sapiens (human) KM12 after 48 hr by Alamar Blue assay; conditions: KM12, 48 h
NCI-H522 = assay: Cytotoxicity against Homo sapiens (human) NCI-H522 after 48 hr by Alamar Blue assay; conditions: NCI-H522, 48 h
MOLT-4 = assay: Cytotoxicity against Homo sapiens (human) MOLT4 after 48 hr by Alamar Blue assay; conditions: MOLT-4, 48 h
[6] = Cytotoxicity against Homo sapiens (human) HL-60(TB) after 48 hr by Alamar Blue assay; conditions: HL-60, 48 h
SNB-19 = assay: Cytotoxicity against Homo sapiens (human) SNB19 after 48 hr by Alamar Blue assay; conditions: SNB-19, 48 h
UACC-257 = assay: Cytotoxicity against Homo sapiens (human) UACC257 after 48 hr by Alamar Blue assay; conditions: UACC-257, 48 h
RPMI-8226 = assay: Cytotoxicity against Homo sapiens (human) RPMI8226 after 48 hr by Alamar Blue assay; conditions: RPMI-8226, 48 h
NCI-H460 [7] = assay: Cytotoxicity against Homo sapiens (human) NCI-H460 assessed as cell growth at 10^-4 M after 48 hr by Alamar Blue assay; conditions: NCI-H460, 48 h, read-out: Activity
A498 = assay: Cytotoxicity against Homo sapiens (human) A498 after 48 hr by Alamar Blue assay; conditions: A498, 48 h
A549 = assay: Cytotoxicity against Homo sapiens (human) A549 after 48 hr by Alamar Blue assay; conditions: A549, 48 h
NCI-H322M = assay: Cytotoxicity against Homo sapiens (human) NCI-H322M after 48 hr by Alamar Blue assay
Malme-3M = assay: Cytotoxicity against Homo sapiens (human) MALME-3M after 48 hr by Alamar Blue assay
NCI-H23 = assay: Cytotoxicity against Homo sapiens (human) NCI-H23 after 48 hr by Alamar Blue assay; conditions: NCI-H23, 48 h
UO-31 = assay: Cytotoxicity against Homo sapiens (human) UO31 after 48 hr by Alamar Blue assay; conditions: UO-31, 48 h

## Cc1ccc(C2=NOC3=c4ccccc4=CSC3=C2c2ccc(C)cc2)cc1
M14
  GI50: > 100 µM
PC-3
  GI50: > 100 µM
HCT-15
  GI50: > 100 µM
SK-MEL-5
  GI50: > 100 µM
SW-620
  GI50: > 100 µM
HT-29
  GI50: > 100 µM
HCC 2998
  GI50: > 100 µM
BT-549
  GI50: > 100 µM
OVCAR-5
  GI50: > 100 µM
SF-268 [1]
  GI50: > 100 µM
K562
  GI50: 22.9 µM
HOP-92
  GI50: 68.1 µM
RXF 393
  GI50: > 100 µM
UACC-62
  GI50: > 100 µM
SF-539
  GI50: > 100 µM
SN12C
  GI50: 20 µM
MCF7 [2]
  growth at 100 µM: 36%
U-251
  GI50: > 100 µM
DU-145
  GI50: > 100 µM
SK-MEL-2
  GI50: > 100 µM
LOX IMVI
  GI50: > 100 µM
OVCAR-3
  GI50: 94.8 µM
NCI-H226
  GI50: > 100 µM
Hs-578T
  GI50: > 100 µM
SF-295
  GI50: > 100 µM
SK-MEL-28
  GI50: > 100 µM
MCF7 [3]
  GI50: > 100 µM
OVCAR-4
  GI50: > 100 µM
COLO 205
  GI50: > 100 µM
EKVX
  GI50: > 100 µM
TK-10
  GI50: > 100 µM
ACHN
  GI50: > 100 µM
T47D
  GI50: 25.4 µM
MDA-MB-231
  GI50: > 100 µM
SR
  GI50: 42 µM
SF-268 [4]
  growth at 100 µM: 91%
OVCAR-8
  GI50: 40 µM
786-0
  GI50: > 100 µM
HCT-116
  GI50: 57.5 µM
MDA-MB-435
  GI50: > 100 µM
NCI/ADR-RES
  GI50: > 100 µM
CAKI-1
  GI50: > 100 µM
NCI-H460 [5]
  GI50: > 100 µM
IGROV-1
  GI50: > 100 µM
HOP-62
  GI50: > 100 µM
KM12
  GI50: > 100 µM
NCI-H522
  GI50: 53.8 µM
MOLT-4
  GI50: 37.1 µM
[6]
  GI50: > 0.0001 µM
SNB-19
  GI50: > 100 µM
UACC-257
  GI50: > 100 µM
RPMI-8226
  GI50: 69.2 µM
NCI-H460 [7]
  growth at 100 µM: 93%
A498
  GI50: > 100 µM
A549
  GI50: > 100 µM
NCI-H322M
  GI50: > 100 µM
Malme-3M
  GI50: > 100 µM
NCI-H23
  GI50: > 100 µM
UO-31
  GI50: > 100 µM
